This passage reports levels of testosterone, average reconstitution time and reconstitution time results from patent US20100286603A1, “KIT AND METHOD FOR PREPARATION OF A DEGARELIX SOLUTION” (priority 2009, published 2010).

The structures appear in SMILES notation. Where a SMILES comes first, the peptide text is derived from it. [ ]: non-standard residue; d: D form. The star is where a group is joined. dPhe(4-NHCONH2) = NC(=O)Nc1ccc(C[C@@H](N)C(=O)O)cc1; Dihydroorotyl(S) = O=C1C[C@@H](C(=O)*)NC(=O)N1; dPhe(4-Cl) = N[C@H](Cc1ccc(Cl)cc1)C(=O)O; Phe(4-NH2) = Nc1ccc(C[C@H](N)C(=O)O)cc1; d2Nal = N[C@H](Cc1ccc2ccccc2c1)C(=O)O; Lys(iPr) = CC(C)NCCCC[C@H](N)C(=O)O; d3Pal = N[C@H](Cc1cccnc1)C(=O)O

The subject of one data set is testosterone. As to conditions: used in a clinical preparation; cited from earlier work.
The nature of data set [1]: Reconstitution of lyophilised Degarelix with water for injection using an automatic swirling machine (laboratory tests). The data set is classed as physicochemical. Particulars: tested for the 80 mg and 120 mg doses. On the procedure:
For example, laboratory tests have shown that average reconstitution times when an automatic swirling machine is used are in the region of 0.8 minutes and the slowest times for reconstitution are in the region of 1.25 to 1.5 minutes (tested for the 80 mg and 120 mg doses). This compares well with the present system of swirling by hand, where the slowest times for reconstitution are near to 15 minutes. An automatic mixing apparatus may enable a reconstitution protocol to be formulated in which the Degarelix and WFI are mixed for a relatively short period of time, after which the Degarelix should in the vast majority of cases have gone into solution, as compared with mixing by hand. It is contemplated that the care-provider may check the clarity of the solution after it has been reconstituted with the automatic mixing apparatus and, if fully reconstituted, administer the solution to the patient.

Data set [2] is described as follows: Reconstitution of lyophilised Degarelix with water for injection, swirled by hand (laboratory testing). The data set is classed as physicochemical. On the procedure:
The WFI in the syringe is then transferred into the Degarelix vial (I) and the assembly of vial, needle, and syringe is swirled by hand to ensure that the lyophilised Degarelix has completely gone into solution. […] In laboratory testing, the reconstitution times for hand swirled Degarelix solutions comprising 80 mg and 120 mg of lyophilised Degarelix are about 5 minutes and 7 minutes respectively. The slowest reconstitution times are considerably greater, however, and can be up to 15 minutes. To ensure that the Degarelix drug product has been fully reconstituted, the care-provider is required to swirl the assembly, by hand, for a period of up to 15 minutes. To assess whether the drug has been reconstituted, the care-provider periodically checks the vial to determine whether the solution is completely clear or not.

Consider `CC(=O)N[C@H](Cc1ccc2ccccc2c1)C(=O)N[C@H](Cc1ccc(Cl)cc1)C(=O)N[C@H](Cc1cccnc1)C(=O)N[C@@H](CO)C(=O)N[C@@H](Cc1ccc(NC(=O)[C@@H]2CC(=O)NC(=O)N2)cc1)C(=O)N[C@H](Cc1ccc(NC(N)=O)cc1)C(=O)N[C@@H](CC(C)C)C(=O)N[C@@H](CCCCNC(C)C)C(=O)N1CCC[C@H]1C(=O)N[C@H](C)C(N)=O` [Degarelix] (Ac-[d2Nal][dPhe(4-Cl)][d3Pal]S[Phe(4-NH2)](Dihydroorotyl(S))[dPhe(4-NHCONH2)]L[Lys(iPr)]P[dA]-NH2), for which, in the data set on testosterone, the levels of testosterone result is “reduction in levels of testosterone”. In data set [1], the average reconstitution time was about 0.8 min. Further, the reconstitution time entry is “about 5 minutes” in data set [2] (80 mg of lyophilised Degarelix) and about 7 min in data set [2] (120 mg of lyophilised Degarelix).
